Source: ChEMBL document CHEMBL1909046, “DrugMatrix in vitro pharmacology data”

Experiments:
[1] = DRUGMATRIX: Calcium Channel Type L, Phenylalkylamine radioligand binding (ligand: [3H] (-)-Desmethoxyverapamil (D-888)); assay type: cell membranes, Rattus norvegicus, Wistar, Brain, Membrane; settings: Not Active = under 50% inhibition at 10 µM
[2] = molecular target: T1, Polyunsaturated fatty acid lipoxygenase ALOX15 (Oryctolagus cuniculus, UniProt P12530); assay: biochemical; assay type: tissue-based, Reticulocytes;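 note: inhibition of 15-lipoxygenase enzyme activity measured with linoleic acid as the substrate; in other assays of this panel Not Active means under 50% inhibition at 10 µM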
T1 sequence (P12530 whole entry): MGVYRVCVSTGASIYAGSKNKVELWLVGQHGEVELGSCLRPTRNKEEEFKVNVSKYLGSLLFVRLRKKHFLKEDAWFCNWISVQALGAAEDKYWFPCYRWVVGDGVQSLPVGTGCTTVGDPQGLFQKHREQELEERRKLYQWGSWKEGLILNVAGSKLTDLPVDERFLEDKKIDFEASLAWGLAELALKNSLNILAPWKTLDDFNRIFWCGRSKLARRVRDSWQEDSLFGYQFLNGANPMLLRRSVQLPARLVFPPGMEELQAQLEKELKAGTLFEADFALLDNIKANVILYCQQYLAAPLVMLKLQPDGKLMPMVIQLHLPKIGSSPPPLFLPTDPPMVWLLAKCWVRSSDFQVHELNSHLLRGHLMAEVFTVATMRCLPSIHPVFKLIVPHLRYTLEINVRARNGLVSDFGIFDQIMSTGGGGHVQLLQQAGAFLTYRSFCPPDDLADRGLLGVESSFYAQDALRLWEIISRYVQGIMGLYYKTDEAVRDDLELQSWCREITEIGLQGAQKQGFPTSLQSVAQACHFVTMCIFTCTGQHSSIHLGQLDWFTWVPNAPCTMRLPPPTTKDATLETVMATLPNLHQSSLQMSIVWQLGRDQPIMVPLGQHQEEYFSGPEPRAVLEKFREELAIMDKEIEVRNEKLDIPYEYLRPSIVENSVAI

Melanocortin receptor 5 = Melanocortin receptor 5 (Homo sapiens, UniProt P33032); assay type: cell membranes, HEK293, Membrane; note: in other assays of this panel Not Active means under 50% inhibition at 10 µM
[3] = molecular target: T2, Amine oxidase [flavin-containing] A (Homo sapiens, UniProt P21397); assay: DRUGMATRIX: Monoamine Oxidase MAO-A enzyme inhibition (substrate: Kynuramine); set-up: species or system BTI-TN-5B1-4; settings: bti-tn-5b1-4; Not Active = under 50% inhibition at 10 µM
T2 sequence (P21397 whole entry): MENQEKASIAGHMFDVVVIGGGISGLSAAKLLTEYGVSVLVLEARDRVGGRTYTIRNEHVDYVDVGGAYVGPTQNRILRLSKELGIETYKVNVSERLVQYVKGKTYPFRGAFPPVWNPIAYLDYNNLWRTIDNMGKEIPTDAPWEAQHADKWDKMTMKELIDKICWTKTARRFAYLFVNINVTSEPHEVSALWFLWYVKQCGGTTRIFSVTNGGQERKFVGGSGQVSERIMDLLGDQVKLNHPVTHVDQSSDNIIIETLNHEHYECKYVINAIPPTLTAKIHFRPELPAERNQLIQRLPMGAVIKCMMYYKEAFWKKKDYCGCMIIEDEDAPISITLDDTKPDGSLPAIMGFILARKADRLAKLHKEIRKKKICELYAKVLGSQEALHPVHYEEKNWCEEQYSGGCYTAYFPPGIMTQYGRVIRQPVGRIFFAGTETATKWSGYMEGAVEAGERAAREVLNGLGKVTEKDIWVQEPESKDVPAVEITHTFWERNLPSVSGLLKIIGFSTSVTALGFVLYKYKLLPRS

[4] = molecular target: T3, Neuropeptide Y receptor type 1 (Homo sapiens, UniProt P25929); assay type: cell membranes, Membrane; settings: sk-n-mc; note: in other assays of this panel Not Active means under 50% inhibition at 10 µM
T3 sequence (P25929 whole entry): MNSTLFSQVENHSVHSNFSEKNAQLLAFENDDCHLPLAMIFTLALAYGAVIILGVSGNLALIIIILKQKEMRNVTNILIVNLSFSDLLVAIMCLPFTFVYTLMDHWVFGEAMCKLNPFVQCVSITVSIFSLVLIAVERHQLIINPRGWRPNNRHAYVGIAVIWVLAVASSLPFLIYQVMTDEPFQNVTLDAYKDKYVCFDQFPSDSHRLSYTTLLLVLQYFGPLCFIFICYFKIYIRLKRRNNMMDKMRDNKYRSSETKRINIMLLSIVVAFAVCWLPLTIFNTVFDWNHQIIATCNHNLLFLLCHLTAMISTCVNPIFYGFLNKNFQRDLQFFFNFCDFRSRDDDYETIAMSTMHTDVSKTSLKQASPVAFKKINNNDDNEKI

[5] = molecular target: T4, 5-hydroxytryptamine receptor 1A (Rattus norvegicus, UniProt P19327); assay type: cell membranes, CHO-K1, Membrane; settings: for Ki: read-out: Ki; for all read-outs here: in other assays of this panel Not Active means under 50% inhibition at 10 µM
T4 sequence (P19327 whole entry): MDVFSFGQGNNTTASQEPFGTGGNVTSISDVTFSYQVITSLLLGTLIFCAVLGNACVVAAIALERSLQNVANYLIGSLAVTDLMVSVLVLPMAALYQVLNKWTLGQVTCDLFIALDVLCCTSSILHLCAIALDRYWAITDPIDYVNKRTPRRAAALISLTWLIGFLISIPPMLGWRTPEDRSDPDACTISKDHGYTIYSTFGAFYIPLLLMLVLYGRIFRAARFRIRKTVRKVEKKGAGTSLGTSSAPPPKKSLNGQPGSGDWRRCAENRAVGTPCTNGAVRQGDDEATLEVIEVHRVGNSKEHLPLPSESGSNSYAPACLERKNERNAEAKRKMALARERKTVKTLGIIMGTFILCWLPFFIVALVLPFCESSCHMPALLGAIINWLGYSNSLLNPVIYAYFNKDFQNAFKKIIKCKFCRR

Melanocortin receptor 5, sequence (P33032 whole entry): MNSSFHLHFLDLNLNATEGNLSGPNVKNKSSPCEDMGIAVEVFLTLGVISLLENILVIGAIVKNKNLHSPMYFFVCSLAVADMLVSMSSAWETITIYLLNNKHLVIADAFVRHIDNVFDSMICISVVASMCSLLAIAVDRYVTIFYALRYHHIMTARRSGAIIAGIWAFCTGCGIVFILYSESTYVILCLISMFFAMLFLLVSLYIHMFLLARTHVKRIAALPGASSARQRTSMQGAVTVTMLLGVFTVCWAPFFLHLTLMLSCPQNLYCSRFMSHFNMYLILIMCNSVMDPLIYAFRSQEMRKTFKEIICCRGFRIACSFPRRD

C#C[C@]1(O)CC[C@H]2[C@@H]3[C@H](C)CC4=C(CCC(=O)C4)[C@H]3CC[C@@]21C [TIBOLONE]
Not Active: IC50 [1] | Ki [1] | IC50 ([2]; reticulocytes) | IC50 (Melanocortin receptor 5; hek293) | IC50 [3] | IC50 [4] | IC50 ([5]; cho-k1)

CN1C(=O)OC(C)(C)C1=O [TRIMETHADIONE]
Not Active: IC50 [1] | Ki [1] | IC50 ([2]; reticulocytes) | IC50 (Melanocortin receptor 5; hek293) | IC50 [3] | IC50 [4] | IC50 ([5]; cho-k1)

OC[C@@H](O)[C@@H](O)[C@H](O)[C@H](O)CO [MANNITOL]
Not Active: IC50 [1] | Ki [1] | IC50 ([2]; reticulocytes) | IC50 (Melanocortin receptor 5; hek293) | IC50 [3] | IC50 [4] | IC50 ([5]; cho-k1)

CCN(CC)C(=S)SSC(=S)N(CC)CC
Not Active: IC50 [1] | Ki [1] | IC50 (Melanocortin receptor 5; hek293) | IC50 [4] | IC50 ([5]; cho-k1)
16100 nM: IC50 ([2]; read-out: IC50)

O=C(O)c1cc(/N=N/c2ccc(S(=O)(=O)Nc3ccccn3)cc2)ccc1O [SULFASALAZINE]
Not Active: IC50 [1] | Ki [1] | IC50 ([2]; reticulocytes) | IC50 (Melanocortin receptor 5; hek293) | IC50 [3] | IC50 [4] | IC50 ([5]; cho-k1)

O=C(c1ccccc1)c1ccc2n1CCC2C(=O)O (centres undefined) [KETOROLAC]
Not Active: IC50 [1] | Ki [1] | IC50 ([2]; reticulocytes) | IC50 (Melanocortin receptor 5; hek293) | IC50 [3] | IC50 [4] | IC50 ([5]; cho-k1)

CC[C@H](C)[C@@H](CO[C@@H](Cc1ccccc1)C(=O)N[C@@H](CCS(C)(=O)=O)C(=O)OC(C)C)NC[C@@H](N)CS
Not Active: IC50 [1] | Ki [1] | IC50 ([2]; reticulocytes) | IC50 [3] | IC50 [4] | IC50 ([5]; cho-k1)
114 nM: Ki (Melanocortin receptor 5; read-out: Ki)
122 nM: IC50 (Melanocortin receptor 5; read-out: IC50)

CC(C)(C)NC[C@H](O)COc1cccc2c1CCCC2=O [LEVOBUNOLOL]
Not Active: IC50 [1] | Ki [1] | IC50 ([2]; reticulocytes) | IC50 (Melanocortin receptor 5; hek293) | IC50 [3] | IC50 [4]
2900 nM: IC50 ([5]; read-out: IC50)
1660 nM: Ki [5]

C[N+]1(C)[C@@H]2C[C@@H](OC(=O)[C@H](CO)c3ccccc3)C[C@H]1[C@@H]1O[C@@H]12.[Br-] [METHSCOPOLAMINE BROMIDE]
Not Active: IC50 [1] | Ki [1] | IC50 ([2]; reticulocytes) | IC50 (Melanocortin receptor 5; hek293) | IC50 [3] | IC50 [4] | IC50 ([5]; cho-k1)

CO[C@@H]1[C@@H](OC)[C@H](C)[C@@](O)(CC(=O)O)O[C@H]1[C@H](C)[C@H]1O[C@@]2(CC[C@@](C)([C@H]3CC[C@@](C)([C@@H]4O[C@@H]([C@H]5O[C@](C)(O)[C@H](C)C[C@@H]5C)C[C@@H]4O[C@@H]4C[C@H](OC)[C@@H](OC)[C@H](C)O4)O3)O2)C[C@H](O)[C@H]1C.N [MADURAMICIN]
Not Active: IC50 [1] | Ki [1] | IC50 ([2]; reticulocytes) | IC50 (Melanocortin receptor 5; hek293) | IC50 [3] | IC50 [4] | IC50 ([5]; cho-k1)

Cc1nnc(NS(=O)(=O)c2ccc(N)cc2)s1 [SULFAMETHIZOLE]
Not Active: IC50 [1] | Ki [1] | IC50 ([2]; reticulocytes) | IC50 (Melanocortin receptor 5; hek293) | IC50 [3] | IC50 [4] | IC50 ([5]; cho-k1)

Cc1cnc(NC(=O)C2=C(O)c3ccccc3S(=O)(=O)N2C)s1 [MELOXICAM]
Not Active: IC50 [1] | Ki [1] | IC50 ([2]; reticulocytes) | IC50 (Melanocortin receptor 5; hek293) | IC50 [3] | IC50 [4] | IC50 ([5]; cho-k1)

CC1=C(/C=C/C(C)=C/C=C/C(C)=C/C(=O)O)C(C)(C)CCC1 [TRETINOIN]
Not Active: IC50 [1] | Ki [1] | IC50 ([2]; reticulocytes) | IC50 (Melanocortin receptor 5; hek293) | IC50 [3] | IC50 [4] | IC50 ([5]; cho-k1)

Cc1ccc(S(=O)(=O)NC(=O)NN2CCCCCC2)cc1 [TOLAZAMIDE]
5110 nM: IC50 ([2]; read-out: IC50)
Not Active: IC50 [1] | Ki [1] | IC50 (Melanocortin receptor 5; hek293) | IC50 [3] | IC50 [4] | IC50 ([5]; cho-k1)

Cc1cccc(C)c1NC(=O)C(C)N (centres undefined) [TOCAINIDE]
Not Active: IC50 [1] | Ki [1] | IC50 ([2]; reticulocytes) | IC50 (Melanocortin receptor 5; hek293) | IC50 [3] | IC50 [4] | IC50 ([5]; cho-k1)

Cc1cc2c(s1)Nc1ccccc1N=C2N1CCN(C)CC1 [OLANZAPINE]
2770 nM: IC50 ([2]; read-out: IC50)
Not Active: IC50 (Melanocortin receptor 5; hek293) | IC50 [3] | IC50 [4] | IC50 ([5]; cho-k1)

COC(=O)Nc1nc2ccc(C(=O)c3ccccc3)cc2[nH]1 [MEBENDAZOLE]
Not Active: IC50 [1] | Ki [1] | IC50 ([2]; reticulocytes) | IC50 (Melanocortin receptor 5; hek293) | IC50 [3] | IC50 [4] | IC50 ([5]; cho-k1)

O=C1CC[C@@]2(O)[C@H]3Cc4ccc(O)c5c4[C@@]2(CCN3CC2CC2)[C@H]1O5 [NALTREXONE]
Not Active: IC50 [1] | Ki [1] | IC50 ([2]; reticulocytes) | IC50 (Melanocortin receptor 5; hek293) | IC50 [3] | IC50 [4] | IC50 ([5]; cho-k1)

CCN(CC)CCNC(=O)c1cc(Cl)c(N)cc1OC [METOCLOPRAMIDE]
Not Active: IC50 [1] | Ki [1] | IC50 ([2]; reticulocytes) | IC50 (Melanocortin receptor 5; hek293) | IC50 [3] | IC50 [4] | IC50 ([5]; cho-k1)

CCOc1cc(N)c(Cl)cc1C(=O)NCC1CN(Cc2ccc(F)cc2)CCO1 (centres undefined) [MOSAPRIDE]
Not Active: IC50 [1] | Ki [1] | IC50 ([2]; reticulocytes) | IC50 (Melanocortin receptor 5; hek293) | IC50 [3] | IC50 [4] | IC50 ([5]; cho-k1)

Cc1ccc(Cl)c(Nc2ccccc2C(=O)O)c1Cl [MECLOFENAMIC ACID]
Not Active: IC50 [1] | Ki [1] | IC50 ([2]; reticulocytes) | IC50 (Melanocortin receptor 5; hek293) | IC50 [3] | IC50 [4] | IC50 ([5]; cho-k1)

CN1C[C@H](CNC(=O)OCc2ccccc2)C[C@@H]2c3cccc4c3c(cn4C)C[C@H]21 [METERGOLINE]
Not Active: IC50 ([2]; reticulocytes) | IC50 (Melanocortin receptor 5; hek293) | IC50 [3] | IC50 [4]
270 nM: Ki ([1]; read-out: Ki)
6.17 nM: IC50 ([5]; read-out: IC50)
278 nM: IC50 ([1]; read-out: IC50)
3.53 nM: Ki [5]

CN(C)CCC=C1c2ccccc2COc2ccccc21 [DOXEPIN]
Not Active: IC50 ([2]; reticulocytes) | IC50 (Melanocortin receptor 5; hek293) | IC50 [3] | IC50 [4]

Oc1ccc(/C=C/c2cc(O)cc(O)c2)cc1 [RESVERATROL]
Not Active: IC50 [1] | Ki [1] | IC50 ([2]; reticulocytes) | IC50 (Melanocortin receptor 5; hek293) | IC50 [4] | IC50 ([5]; cho-k1)

CNCCCC12CCC(c3ccccc31)c1ccccc12 [MAPROTILINE]
Not Active: IC50 ([2]; reticulocytes) | IC50 (Melanocortin receptor 5; hek293) | IC50 [3] | IC50 [4] | IC50 ([5]; cho-k1)
